One data set deals with LX2 cells. Briefly: qPCR of TGF-β-induced gene expression in LX2 cells. The data set is classed as cell-based, human. As for the experimental part:
(§1) LX2 cells were obtained from Sigma Aldrich (Cat #SCC064). LX2 cells were grown at 37° C. under 5% CO2, 95% ambient atmosphere and maintained in Dulbecco's […] (DMEM) supplemented with 10% FBS (Sigma) and 1% Penn Strep.
FIGS. 10B and 10C: LX2 cells were incubated with TGF-β alone at 6.5 ng/ml or TGF-β with indicated drugs for 48 hours. Total cellular RNA was isolated using a RNeasy Mini Kit (QIAGEN). 1 μg of total RNA was reverse transcribed into first-strand cDNA using an RT2 First Strand Kit (QIAGEN). The resultant cDNA was subjected to qPCR using indicated human primers to measure the changes in mRNA expression of indicated human genes.
For orientation: In qPCR the cycle at which signal appears reflects the starting amount.

Data set [1] has as its system CCl4-induced fibrosis. In words: Carbon tetrachloride (CCl4)-induced liver fibrosis mouse model. Type of data set: in vivo. How it is done: FIGS. 11A and 11B. Male C57BL/6J mice between 6-8 week old were used in the study. Mice were treated with intraperitoneal injection of 0.5 μl carbon tetrachloride (CCl4) per gram body weight, dissolved in corn oil at a ratio of 1:3, twice a week (Tuesdays and Saturdays) for 5.5 weeks or corn oil control only. […] At the end of the study, livers were either snap frozen or fixed in 10% formalin and stained for H&E, Masson Trichrome (FIG. 11A) and Ki67 (FIG. 11B).
Total RNA was extracted from the snap frozen liver tissue in TRIzol™ Reagent by Omni Bead Ruptor homogenizer. 1 μg of total RNA was reverse transcribed into first-strand cDNA using an RT2 First Strand Kit (QIAGEN). The resultant cDNA was subjected to qPCR using indicated mouse primers to measure the changes in mRNA expression of indicated mouse genes (FIG. 11A and FIG. 11C).
FIG. 12A: Total protein was extracted from the snap frozen liver tissue in T-PER™ Tissue Protein Extraction Reagent by Omni Bead Ruptor homogenizer. Changes in the phosphorylation levels of indicated proteins were detected in the liver homogenates from the CCl4 in vivo studies by reverse-phase protein array.
FIG. 12B: pSTAT3 levels were detected in the fixed […] tissue by immunohistochemistry. Intensity of staining was quantified by HALO imaging software.

Data set [2] deals with TGF-β activity in LX2 cells. In words: SMAD2/3 luciferase reporter assay of TGF-β activity in LX2 cells. Type of data set: cell-based, human.
Description: In preliminary studies, a well-established, culture-activated human hepatic stellate cell model (LX2, initially established by Scott Friedman as described in Xu, L. et al., Human hepatic stellate cell lines, LX-1 and LX-2: new tools for analysis of hepatic fibrosis. Gut 54, 142-151 (2005), incorporated herein by reference in its entirety) was used and a set of 32 computationally chosen, broad-specific kinase inhibitors that collectively target a broad range of kinases were screened. Each drug was examined at eight concentrations, and its effect on the activity of TGF-β (measured by SMAD2/3 luciferase reporter) and on aHSC cell viability was scored. 1536 data points were then analyzed to develop regression modeling to predict the response to >400 drugs (FIG. 9A). […] (FIG. 9B).
as §1
A general note: A reporter such as luciferase makes a cellular process visible.

Data set [3] relates to Human lung fibroblasts (LL47). Briefly: qPCR of TGF-β-induced gene expression in human lung fibroblasts LL47. The data set is classed as cell-based. The note with it: OSI-632 1 mM as printed; LL47, 24 hours. How it is done: (§2) IPF-LL29, IPF-LL97A, and human lung fibroblast LL47 cell lines were purchased from ATCC. Mouse lung fibroblasts were isolated from the lungs of male C57BL/6J mice. Cells were grown at 37° C. under 5% CO2, 95% ambient atmosphere and maintained in Dulbecco's […] (DMEM) supplemented with 10% FBS (Sigma) and 1% Penn Strep.
FIGS. 3A and 3B. Human lung fibroblast LL47 and mouse primary lung fibroblasts isolated from mouse lungs were incubated with TGF-β alone at 5 ng/ml or TGF-β with indicated drugs for 24 hours. Same method as outlined in FIGS. 2A and 2B was used to measure the mRNA expression of indicated human or mouse genes.

A further data set has as its system TGF-β. Briefly: Time course of TGF-β-induced phosphorylation of SMAD2 and ERK in IPF-LL29 cells (reverse-phase protein array). Type of data set: cell-based, human. The note with it: 1 mM OSI-632 as printed, TGF-β 5 ng/ml. How it is done: as §2
FIG. 1B. […] At the end of the experiment, cells were lysed in 2% SDS lysis buffer. Protein levels of phosphorylated SMAD2 and ERK were detected in the cell lysates by reverse-phase protein array.

The conditions of data set [4]: cited from earlier work.
Data set [5] concerns CCl4-induced fibrosis. In words: Carbon tetrachloride (CCl4)-induced liver fibrosis mouse model. The note with it: vs CCl4-only treated mouse livers tissues; RPPA, IHC. The data set is classed as in vivo.

As a reminder, the IC50 is the concentration at which inhibition is half-maximal. Low values mean higher potency, high ones lower potency. Consider `NC(=O)c1c(OCc2c(F)cc(Br)cc2F)nsc1NC(=O)NCCCCN1CCCC1` [OSI-632, 3-(4-bromo-2,6-difluoro-benzyloxy)-5-[3-(4-pyrrolidin-1-yl-butyl)-ureido]-isothiazole-4-carboxylic acid amide], for which, in the data set on LX2 cells, the “expression of integrins (ITGAV and ITGB6) and HSC proliferation stimuli TGFB2, PDGFA, PDGFB, CTGF, VEGFA, and CCL5” value is given as “significant decrease”; the “inhibition of expression of COL1A1 (FIG. 10C)” value stood at 2 fold; the “inhibition of expression of COL1A2 (FIG. 10C)” value came to 3 fold; the “inhibition of expression of COL5A1 (FIG. 10C)” value was 5 fold. Moreover, in the data set with LX2 cells (48 hours), the “decrease in TGF-β-induced expression of COL1A1 (FIG. 10B)” value came to 2 fold and the “decrease in TGF-β-induced expression of αSMA (FIG. 10B)” value came to 2 fold. The “carbon tetrachloride (CCl4)-induced fibrosis” value in the data set with CCl4-induced fibrosis [1] (80 mg/Kg thrice/week oral gavage, 3 weeks, mice, preliminary data) is listed as “significant decrease”. The “hepatocyte regeneration measured by Ki67 staining” value in the data set with CCl4-induced fibrosis [1] (livers treated with OSI-632) is reported as “increased hepatocyte regeneration”. In the data set with CCl4-induced fibrosis [1] (mouse liver, qPCR), the “CCl4-induced expression of HSC activation marker Acta2 and proliferation stimuli such as Tgfb2” value is “reverse”; the “reversal of CCl4-induced expression of Loxl1” value was determined as 2 fold; the “reversal of CCl4-induced expression of Timp1” value came to 5 fold; the “reversal of CCl4-induced expression of Timp2” value came out at 2 fold. Further, in the data set with CCl4-induced fibrosis [1] (mouse liver, qPCR), the “reversal of CCl4-induced expression of Timp3” value is recorded as approximately 2 fold. The “mRNA expression of Col1a1 (qPCR) and protein level of collagen 1 (RPPA), liver” value in the data set with CCl4-induced fibrosis [1] (vs CCl4-only treated controls) is reported as “significantly decreased”. Also, in the data set on CCl4-induced fibrosis [1] (vs CCl4 only treated mice), the “collagen deposition (Masson trichome staining), liver” value was “significant reduction”. In addition, half-maximal inhibition in data set [2] (Homo sapiens, LX-2, SMAD2/3 luciferase reporter) (IC50) was put at 13.7 nM. Further, the “block of TGF-β activity compared with galunisertib and pirfenidone” value in data set [2] (LX2 cells) was “outperformed”. Further, the “TGFb-induced expression of COL1A1, ACTA2, and FN1 and of indicated proliferation stimuli” value in data set [3] is “inhibited”. Further, the “activity of TGF-β (measured by phosphorylation of SMAD2/3 and Erk)” value with TGF-β is on record as “significantly decreased”. The “bleeding and thrombosis toxicity” value in data set [4] (as sometimes observed with agents targeting VEGF/VEGFR) was “neither had toxicity issues of bleeding and thrombosis”. Also, the “adverse events in the liver” value in data set [4] (in vivo) is reported as “nor does it cause any adverse events in the liver”. The maximal tolerable dose in data set [4] (phases I and II trials for various cancers) is listed as 200 mg/day. Besides, the safety and tolerability result in data set [4] (phases I and II trials, toxicities primarily low grade and readily managed) is “safe and well-tolerated”. In addition, the “CCl4-induced phosphorylation of Smad2, Pdgfrb, Fgfr, Src, Nfκβ, and STAT3” value with CCl4-induced fibrosis [5] is reported as “significantly decreased”.
